# From US10517889B2, “Modulators of SMAD7 expression” (Ionis Pharmaceuticals, Inc., priority 2017, dated 2019)
# Values joined by “and” are separate entries in the source; they are usually repeats but may differ in a detail not shown here. Equal values may be shown once. Strand notation (5' to 3'): a small letter for the sugar, then the base; units joined by * are phosphorothioate-linked, units joined directly phosphodiester-linked; [ ] holds rarer units or linkages, { } end groups; capitals alone tell only the bases. k = constrained ethyl (cEt); [5mC] = 5-methylcytosine; d = 2'-deoxy (DNA)
# Tests used:
# human SMAD7 mRNA [1] = test: Dose-dependent inhibition of human SMAD7 mRNA expression in Hep3B cells (Example 3, Study 1 and 2); type: cell-based; conditions: electroporation; for % inhibition of SMAD7 mRNA expression: approximately 16 hours; for IC50: Study 2 (740-20000 nM)
# How it was run: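 Hep3B cells, 20,000 per well, electroporated with antisense oligonucleotide at 0.31, 1.25, 5.00 or 20.00 μM (first series) or 0.74, 2.22, 6.67 or 20.00 μM (second series). After ~16 h, SMAD7 mRNA measured by RT-qPCR (RTS5062), normalised to RIBOGREEN total RNA. Percent inhibition vs untreated cells; IC50 derived.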
# human SMAD7 mRNA [2] = test: Antisense inhibition of human SMAD7 mRNA expression in Hep3B cells by 3-10-3 cEt gapmers, 10,000 nM, electroporation (Example 2); type: cell-based; conditions: approximately 24 hours
# How it was run: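 Hep3B, 20,000 cells/well; electroporation, 10,000 nM ASO; ~24 h. Readout: SMAD7 mRNA by qRT-PCR (RTS5062), RIBOGREEN-normalised; % inhibition vs untreated.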
# [3] = 740 nM, Study 2, relative to untreated control cells
# [4] = Hep3B cells, 10,000 nM antisense oligonucleotide, electroporation, RT-PCR primer probe set RTS5062, relative to untreated control cells
# [5] = Hep3B cells, electroporation with 10,000 nM antisense oligonucleotide, SMAD7 mRNA by RT-PCR (RTS5062), relative to untreated control cells
# [6] = SMAD7 mRNA, Hep3B cells, 10,000 nM antisense oligonucleotide, electroporation, primer probe set RTS5062, relative to untreated control cells
# [7] = Hep3B cells, electroporation with 10,000 nM antisense oligonucleotide, primer probe set RTS5062, relative to untreated control cells
# [8] = Hep3B cells, electroporation, 10,000 nM antisense oligonucleotide, RTS5062, relative to untreated control cells
# [9] = Hep3B cells, electroporation with 10,000 nM antisense oligonucleotide, RTS5062, percent inhibition of SMAD7 mRNA relative to untreated control cells
Substance,% inhibition of SMAD7 mRNA expression (human SMAD7 mRNA [1]; [3]) [%],"% inhibition of SMAD7 mRNA expression (human SMAD7 mRNA [1]; 2220 nM, Study 2) [%]","% inhibition of SMAD7 mRNA expression (human SMAD7 mRNA [1]; 6670.0 nM, Study 2)","% inhibition of SMAD7 mRNA expression (human SMAD7 mRNA [1]; 20000.0 nM, Study 2)",IC50 (human SMAD7 mRNA [1]) [µM],% Inhibition (human SMAD7 mRNA [2]; [4]) [%],% Inhibition (human SMAD7 mRNA [2]; [5]) [%],% Inhibition (human SMAD7 mRNA [2]; [6]) [%],% inhibition of SMAD7 mRNA expression (human SMAD7 mRNA [2]; [7]) [%],% inhibition of SMAD7 mRNA expression (human SMAD7 mRNA [2]; [8]) [%],"% Inhibition (human SMAD7 mRNA [2]; SMAD7 mRNA, Hep3B cells, electroporation with 10,000 nM antisense oligonucleotide, primer probe set RTS5062, relative to untreated control cells) [%]",% Inhibition (human SMAD7 mRNA [2]; [9]) [%]
799878 (kG*k[5mC]*k[5mC]*d[5mC]*d[5mC]*d[5mC]*d[5mC]*dT*d[5mC]*d[5mC]*d[5mC]*d[5mC]*dG*kT*kG*k[5mC]; antisense) [compound 799878],35,64,68%,84%,17,70,,,,,,
830128 (antisense kA*k[5mC]*k[5mC]*dT*d[5mC]*d[5mC]*dG*dA*dG*dG*d[5mC]*dA*d[5mC]*k[5mC]*kA*k[5mC]) [compound 830128],20,55,74%,85%,3,,87,,,,,
772858 (kA*kG*kT*dG*dT*dT*d[5mC]*dA*dA*d[5mC]*dA*dA*dT*kG*k[5mC]*kT; antisense) [compound 772858],7,26,29%,51%,> 20,,,62,,,,
799496 (antisense kG*kG*kG*dT*dG*dA*dG*dG*dT*dG*dG*d[5mC]*dT*kG*k[5mC]*kG) [compound 799496],3,12,34%,69%,3,,,,72,,,
799674 (antisense kG*kA*kT*d[5mC]*dA*d[5mC]*dA*dA*dT*dT*d[5mC]*d[5mC]*dA*kA*kG*k[5mC]) [compound 799674],16,35,64%,91%,14,,,,,48,,
829956 (k[5mC]*k[5mC]*kT*dT*dG*dT*d[5mC]*dA*d[5mC]*d[5mC]*d[5mC]*dG*dT*k[5mC]*kT*kG; antisense) [compound 829956],65,82,89%,95%,1,,,,,,66,
799471 (antisense k[5mC]*kA*k[5mC]*dA*dG*dA*dA*dA*dA*dG*d[5mC]*dT*d[5mC]*k[5mC]*kG*k[5mC]) [compound 799471],0,9,14%,46%,5,,71,,,,,
830180 (antisense k[5mC]*kG*kT*dG*dT*dA*d[5mC]*d[5mC]*d[5mC]*dA*dG*d[5mC]*dT*kG*k[5mC]*k[5mC]) [compound 830180],21,39,43%,64%,8,,62,,,,,
799589 (kA*kA*kT*dA*dT*d[5mC]*dT*dG*dT*dG*dT*d[5mC]*dT*kA*k[5mC]*kA; antisense) [compound 799589],15,58,77%,82%,4,,,,,,,65
830028 (antisense k[5mC]*kA*kG*dT*d[5mC]*dA*dA*dG*dT*dT*dA*d[5mC]*dA*kG*kT*k[5mC]) [compound 830028],54,70,85%,93%,3,,75,,,,,
799631 (k[5mC]*k[5mC]*kA*dA*dA*dT*d[5mC]*dA*d[5mC]*dA*dA*dA*dG*k[5mC]*kA*kG; antisense) [compound 799631],0,25,49%,88%,3,,,,,,,82
790616 (k[5mC]*kT*kA*dA*dA*dT*dT*dT*d[5mC]*d[5mC]*dA*dA*dT*kG*kA*kG; antisense) [compound 790616],0,8,26%,65%,13,,,66,,,,
800109 (antisense kA*k[5mC]*kA*dG*d[5mC]*d[5mC]*dA*d[5mC]*dA*dA*dG*dT*d[5mC]*kA*k[5mC]*kA) [compound 800109],,,,71% and 67% and 93% and 97%,1,,86,88,75,,,
800048 (antisense kT*kG*kG*dA*dA*dA*dG*dG*dA*dA*dG*dA*d[5mC]*kT*k[5mC]*kG) [compound 800048],0,31,58%,58%,4,,64,,,,,
798764 (kA*k[5mC]*kT*dT*dT*dG*d[5mC]*dA*d[5mC]*dA*dG*d[5mC]*dA*kG*kG*kA; antisense) [compound 798764],,,57% and 72% and 54%,93% and 87% and 65% and 83%,1,,,75,69,,,
799722 (antisense kG*k[5mC]*kA*dG*dA*dG*dT*dG*dA*dG*dA*dA*d[5mC]*kA*kA*kG) [compound 799722],17,38,53%,82%,5,,,,,,,67
799791 (kG*kG*kG*dA*dG*dA*d[5mC]*d[5mC]*dT*dA*d[5mC]*d[5mC]*dT*k[5mC]*kT*kG; antisense) [compound 799791],11,4,29%,60%,6,,,,,56,,
772578 (kG*kG*kT*dA*dT*d[5mC]*dT*dG*dG*dA*dG*dT*dA*kA*kG*kG; antisense) [compound 772578],54,44,70%,86%,1,,,63,,,,
830099 (kG*k[5mC]*k[5mC]*dT*dT*dT*dG*dG*dA*dA*dT*dT*dA*kG*kT*kA; antisense) [compound 830099],42,56,70%,92%,10,,79,,,,,
830122 (kG*kA*kG*dA*dA*dT*d[5mC]*dA*dA*dG*d[5mC]*d[5mC]*d[5mC]*kT*kG*kG; antisense) [compound 830122],28,54,66%,74%,3,,57,,,,,
799607 (k[5mC]*k[5mC]*kA*dT*dT*dT*dA*d[5mC]*dA*dA*dA*dA*d[5mC]*kT*k[5mC]*kT; antisense) [compound 799607],5,12,46%,76%,2,,,,,,,71
799556 (kA*k[5mC]*kA*dA*d[5mC]*dA*dA*dT*dG*d[5mC]*dT*d[5mC]*dT*kG*kG*k[5mC]; antisense) [compound 799556],0,50,71%,71%,2,,,,,68,,
798824 (kG*kA*k[5mC]*dA*d[5mC]*dA*dG*dT*dA*dG*dA*dG*d[5mC]*k[5mC]*kT*k[5mC]; antisense) [compound 798824],0,0,7%,42%,4,74,,,,,,
